Columns and labels:
BRDT BD1 WT = BRDT BD1 WT (Homo sapiens, UniProt Q58F21); assay: competitive AlphaLISA; type: binding
BTK = BTK (Homo sapiens, UniProt Q06187); assay: kinase Express Screen; type: biochemical
Experimental: (§1) Kinase Remaining activity
(§2) Table S9. 9-ME-1 Kinase Screen
(§3) Activity of panel of human kinases following treatment with 1 µM (2R, 3S)-7. Dundee MRC-PPU Express Screen
(§4) (http://www.kinase-screen.mrc.ac.uk/services/express-screen)

CAMK1 = CAMK1 (Homo sapiens, UniProt Q14012); assay: kinase Express Screen; type: biochemical
Experimental: as §1, §2, §3, §4

CK1δ = CK1δ (Homo sapiens, UniProt P48730); assay: kinase Express Screen; type: biochemical
Experimental: as §1, §2, §3, §4

CK2 = CK2 (Homo sapiens, UniProt P68400); assay: kinase Express Screen; type: biochemical
Experimental: as §1, §2, §3, §4

DYRK1A = DYRK1A (Homo sapiens, UniProt Q13627); assay: kinase Express Screen; type: biochemical
Experimental: as §1, §2, §3, §4

EF2K = EF2K (Homo sapiens, UniProt O00418); assay: kinase Express Screen; type: biochemical
Experimental: as §1, §2, §3, §4

GSK3b = GSK3b (Homo sapiens, UniProt P49841); assay: kinase Express Screen; type: biochemical
Chain of GSK3b (P49841 whole entry): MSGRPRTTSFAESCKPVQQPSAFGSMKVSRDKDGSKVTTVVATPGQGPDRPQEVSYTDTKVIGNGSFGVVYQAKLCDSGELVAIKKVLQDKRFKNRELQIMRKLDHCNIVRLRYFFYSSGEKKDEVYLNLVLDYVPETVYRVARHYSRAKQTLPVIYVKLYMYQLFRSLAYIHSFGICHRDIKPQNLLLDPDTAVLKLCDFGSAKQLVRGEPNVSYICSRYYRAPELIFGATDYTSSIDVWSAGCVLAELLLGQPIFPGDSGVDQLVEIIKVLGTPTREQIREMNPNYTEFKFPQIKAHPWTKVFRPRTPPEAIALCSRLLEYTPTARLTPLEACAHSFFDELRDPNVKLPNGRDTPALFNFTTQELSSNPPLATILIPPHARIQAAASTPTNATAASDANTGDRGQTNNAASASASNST
Experimental: as §1, §2, §3, §4

HER4 = HER4 (Homo sapiens, UniProt Q15303); assay: kinase Express Screen; type: biochemical
Experimental: as §1, §2, §3, §4

HIPK2 = HIPK2 (Homo sapiens, UniProt Q9H2X6); assay: kinase Express Screen; type: biochemical
Chain of HIPK2 (Q9H2X6 whole entry): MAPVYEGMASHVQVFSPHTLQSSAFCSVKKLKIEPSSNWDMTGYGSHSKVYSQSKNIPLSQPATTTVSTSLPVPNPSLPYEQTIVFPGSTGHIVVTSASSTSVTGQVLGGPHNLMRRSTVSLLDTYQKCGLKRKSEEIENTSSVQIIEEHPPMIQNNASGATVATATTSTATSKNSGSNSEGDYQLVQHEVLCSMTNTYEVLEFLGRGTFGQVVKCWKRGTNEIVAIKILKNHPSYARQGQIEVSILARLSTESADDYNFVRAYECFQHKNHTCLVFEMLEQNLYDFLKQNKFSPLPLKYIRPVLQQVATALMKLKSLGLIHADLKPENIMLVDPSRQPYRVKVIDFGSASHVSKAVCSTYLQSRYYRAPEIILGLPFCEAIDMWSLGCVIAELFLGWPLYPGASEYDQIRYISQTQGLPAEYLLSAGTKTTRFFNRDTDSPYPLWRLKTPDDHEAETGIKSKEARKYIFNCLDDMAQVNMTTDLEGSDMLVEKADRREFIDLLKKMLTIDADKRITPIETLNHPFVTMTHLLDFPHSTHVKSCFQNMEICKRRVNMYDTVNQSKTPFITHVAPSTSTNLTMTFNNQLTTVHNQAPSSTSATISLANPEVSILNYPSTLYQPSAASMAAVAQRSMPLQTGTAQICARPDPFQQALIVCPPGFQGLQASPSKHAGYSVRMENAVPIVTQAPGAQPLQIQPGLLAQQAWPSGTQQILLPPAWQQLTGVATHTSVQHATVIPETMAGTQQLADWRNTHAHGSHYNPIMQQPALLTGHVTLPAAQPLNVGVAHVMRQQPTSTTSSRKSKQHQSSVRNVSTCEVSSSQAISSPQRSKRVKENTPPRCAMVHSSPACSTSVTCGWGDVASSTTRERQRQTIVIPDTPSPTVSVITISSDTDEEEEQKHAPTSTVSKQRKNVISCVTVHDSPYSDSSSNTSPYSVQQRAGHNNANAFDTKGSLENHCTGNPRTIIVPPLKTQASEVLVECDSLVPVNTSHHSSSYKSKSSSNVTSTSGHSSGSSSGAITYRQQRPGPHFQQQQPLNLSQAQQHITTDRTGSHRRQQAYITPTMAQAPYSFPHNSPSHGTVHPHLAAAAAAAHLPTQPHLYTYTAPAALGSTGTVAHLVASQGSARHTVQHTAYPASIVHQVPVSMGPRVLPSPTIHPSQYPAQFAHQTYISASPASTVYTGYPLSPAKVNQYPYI
Experimental: as §1, §2, §3, §4

JAK3 = JAK3 (Homo sapiens, UniProt P52333); assay: kinase Express Screen; type: biochemical
Experimental: as §1, §2, §3, §4

JNK1 = JNK1 (Homo sapiens, UniProt P45983); assay: kinase Express Screen; type: biochemical
Experimental: as §1, §2, §3, §4

LKB1 = LKB1 (Homo sapiens, UniProt Q15831); assay: kinase Express Screen; type: biochemical
Experimental: as §1, §2, §3, §4

Lck = Lck (Homo sapiens, UniProt P06239); assay: kinase Express Screen; type: biochemical
Experimental: as §1, §2, §3, §4

MKK1 = MKK1 (Homo sapiens, UniProt Q02750); assay: kinase Express Screen; type: biochemical
Experimental: as §1, §2, §3, §4

MLK3 = MLK3 (Homo sapiens, UniProt Q16584); assay: kinase Express Screen; type: biochemical
Experimental: as §1, §2, §3, §4

NEK6 = NEK6 (Homo sapiens, UniProt Q9HC98); assay: kinase Express Screen; type: biochemical
Experimental: as §1, §2, §3, §4

PAK4 = PAK4 (Homo sapiens, UniProt O96013); assay: kinase Express Screen; type: biochemical
Experimental: as §1, §2, §3, §4

PIM1 = PIM1 (Homo sapiens, UniProt P11309); assay: kinase Express Screen; type: biochemical
Experimental: as §1, §2, §3, §4

PKA = PKA (Homo sapiens, UniProt P17612); assay: kinase Express Screen; type: biochemical
Experimental: as §1, §2, §3, §4

PKCa = PKCa (Homo sapiens, UniProt P17252); assay: kinase Express Screen; type: biochemical
Experimental: as §1, §2, §3, §4

PLK1 = PLK1 (Homo sapiens, UniProt P53350); assay: kinase Express Screen; type: biochemical
Experimental: as §1, §2, §3, §4

PRK2 = PRK2 (Homo sapiens, UniProt Q16513); assay: kinase Express Screen; type: biochemical
Chain of PRK2 (Q16513 whole entry): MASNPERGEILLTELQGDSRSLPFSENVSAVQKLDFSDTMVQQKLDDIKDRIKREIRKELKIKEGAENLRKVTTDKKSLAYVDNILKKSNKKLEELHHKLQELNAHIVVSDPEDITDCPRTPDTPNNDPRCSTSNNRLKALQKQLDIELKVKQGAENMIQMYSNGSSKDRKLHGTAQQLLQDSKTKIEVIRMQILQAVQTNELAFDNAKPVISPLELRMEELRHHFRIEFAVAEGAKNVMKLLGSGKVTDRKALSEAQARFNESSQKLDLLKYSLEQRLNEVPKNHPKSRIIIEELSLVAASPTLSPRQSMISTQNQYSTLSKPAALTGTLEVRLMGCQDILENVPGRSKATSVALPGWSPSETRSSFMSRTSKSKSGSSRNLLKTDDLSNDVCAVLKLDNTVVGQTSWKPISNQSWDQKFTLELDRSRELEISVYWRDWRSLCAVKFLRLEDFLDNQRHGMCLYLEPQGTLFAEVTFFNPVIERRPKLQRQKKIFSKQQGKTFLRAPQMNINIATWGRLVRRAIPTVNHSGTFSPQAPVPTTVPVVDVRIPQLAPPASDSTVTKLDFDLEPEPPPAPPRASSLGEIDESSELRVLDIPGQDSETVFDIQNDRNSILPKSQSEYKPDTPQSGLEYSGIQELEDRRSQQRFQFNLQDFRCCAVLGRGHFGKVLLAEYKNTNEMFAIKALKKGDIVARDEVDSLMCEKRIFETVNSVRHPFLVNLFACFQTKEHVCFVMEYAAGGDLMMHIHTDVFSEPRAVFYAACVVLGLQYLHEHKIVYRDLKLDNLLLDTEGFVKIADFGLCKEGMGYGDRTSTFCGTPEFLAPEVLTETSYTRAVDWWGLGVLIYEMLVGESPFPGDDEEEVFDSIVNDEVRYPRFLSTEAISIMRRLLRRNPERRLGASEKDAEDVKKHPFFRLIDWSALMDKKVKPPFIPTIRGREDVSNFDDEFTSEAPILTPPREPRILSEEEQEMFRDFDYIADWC
Experimental: as §1, §2, §3, §4

RIPK2 = RIPK2 (Homo sapiens, UniProt O43353); assay: kinase Express Screen; type: biochemical
Experimental: as §1, §2, §3, §4

ROCK 2 = ROCK 2 (Homo sapiens, UniProt O75116); assay: kinase Express Screen; type: biochemical
Experimental: as §1, §2, §3, §4

RSK1 = RSK1 (Homo sapiens, UniProt Q15418); assay: kinase Express Screen; type: biochemical
Experimental: as §1, §2, §3, §4

SGK1 = SGK1 (Homo sapiens, UniProt O00141); assay: kinase Express Screen; type: biochemical
Chain of SGK1 (O00141 whole entry): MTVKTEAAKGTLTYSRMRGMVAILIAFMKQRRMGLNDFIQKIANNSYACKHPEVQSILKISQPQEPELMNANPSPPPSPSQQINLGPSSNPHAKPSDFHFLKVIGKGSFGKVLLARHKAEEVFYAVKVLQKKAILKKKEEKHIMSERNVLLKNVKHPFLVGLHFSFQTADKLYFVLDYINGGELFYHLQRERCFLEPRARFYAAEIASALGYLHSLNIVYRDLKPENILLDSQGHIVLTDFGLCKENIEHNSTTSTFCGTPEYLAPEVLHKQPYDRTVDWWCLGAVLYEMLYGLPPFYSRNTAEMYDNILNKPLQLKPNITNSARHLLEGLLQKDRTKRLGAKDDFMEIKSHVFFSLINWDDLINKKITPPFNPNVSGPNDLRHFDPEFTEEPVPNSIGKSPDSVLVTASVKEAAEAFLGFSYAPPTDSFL
Experimental: as §1, §2, §3, §4

SYK = SYK (Homo sapiens, UniProt P43405); assay: kinase Express Screen; type: biochemical
Experimental: as §1, §2, §3, §4

SmMLCK = SmMLCK (Homo sapiens, UniProt Q15746); assay: kinase Express Screen; type: biochemical
Experimental: as §1, §2, §3, §4

TBK1 = TBK1 (Homo sapiens, UniProt Q9UHD2); assay: kinase Express Screen; type: biochemical
Experimental: as §1, §2, §3, §4

VEG-FR = VEG-FR (Homo sapiens, UniProt P17948); assay: kinase Express Screen; type: biochemical
Experimental: as §1, §2, §3, §4

p38a MAPK = p38a MAPK (Homo sapiens, UniProt Q16539); assay: kinase Express Screen; type: biochemical
Experimental: as §1, §2, §3, §4

H2 (h) = H2 (h) (Homo sapiens, UniProt P25021); assay: CEREP ExpresSProfile; settings: read-out: Mean % of control specific binding (±SD)
Y2 (h) = Y2 (h) (Homo sapiens, UniProt P49146); assay: CEREP ExpresSProfile; settings: read-out: Mean % of control specific binding (±SD)
H1 (h) = H1 (h) (Homo sapiens, UniProt P35367); assay: CEREP ExpresSProfile; settings: read-out: Mean % of control specific binding (±SD)
Chain of H1 (h) (P35367 whole entry): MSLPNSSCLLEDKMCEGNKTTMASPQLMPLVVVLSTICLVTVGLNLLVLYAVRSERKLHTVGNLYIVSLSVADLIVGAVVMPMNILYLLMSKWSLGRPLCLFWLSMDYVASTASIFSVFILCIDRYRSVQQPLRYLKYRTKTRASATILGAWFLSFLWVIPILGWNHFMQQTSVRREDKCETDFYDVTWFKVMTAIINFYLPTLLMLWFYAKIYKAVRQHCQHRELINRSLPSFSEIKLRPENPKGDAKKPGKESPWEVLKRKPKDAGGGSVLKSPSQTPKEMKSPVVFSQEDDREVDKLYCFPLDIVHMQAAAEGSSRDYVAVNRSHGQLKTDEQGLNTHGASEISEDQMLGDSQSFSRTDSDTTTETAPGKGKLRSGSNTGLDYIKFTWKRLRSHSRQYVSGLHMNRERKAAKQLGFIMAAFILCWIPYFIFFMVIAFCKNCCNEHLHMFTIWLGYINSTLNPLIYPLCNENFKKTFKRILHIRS

BZD (central) = assay: CEREP ExpresSProfile; type: binding; settings: 1 µM
SKCa channel = assay: CEREP ExpresSProfile; type: binding; settings: 1 µM
B2 (h) = B2 (h) (Homo sapiens, UniProt P30411); assay: CEREP ExpresSProfile; settings: read-out: Mean % of control specific binding (±SD)
Chain of B2 (h) (P30411 whole entry): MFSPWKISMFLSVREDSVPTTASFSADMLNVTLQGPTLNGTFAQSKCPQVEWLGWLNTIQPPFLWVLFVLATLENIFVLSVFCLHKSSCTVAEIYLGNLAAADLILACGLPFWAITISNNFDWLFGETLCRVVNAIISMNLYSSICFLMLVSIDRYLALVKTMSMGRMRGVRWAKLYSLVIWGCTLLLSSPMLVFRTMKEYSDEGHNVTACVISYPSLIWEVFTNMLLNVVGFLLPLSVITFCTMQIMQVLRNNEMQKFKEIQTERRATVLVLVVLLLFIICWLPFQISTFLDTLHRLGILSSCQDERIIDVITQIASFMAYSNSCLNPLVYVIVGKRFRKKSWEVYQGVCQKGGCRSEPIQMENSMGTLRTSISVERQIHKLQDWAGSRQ

Cl- channel (GABA-gated) = assay: CEREP ExpresSProfile; type: binding; settings: 1 µM
CCK1 (CCKA) (h) = CCK1 (CCKA) (h) (Homo sapiens, UniProt P32238); assay: CEREP ExpresSProfile; settings: read-out: Mean % of control specific binding (±SD)
Chain of CCK1 (CCKA) (h) (P32238 whole entry): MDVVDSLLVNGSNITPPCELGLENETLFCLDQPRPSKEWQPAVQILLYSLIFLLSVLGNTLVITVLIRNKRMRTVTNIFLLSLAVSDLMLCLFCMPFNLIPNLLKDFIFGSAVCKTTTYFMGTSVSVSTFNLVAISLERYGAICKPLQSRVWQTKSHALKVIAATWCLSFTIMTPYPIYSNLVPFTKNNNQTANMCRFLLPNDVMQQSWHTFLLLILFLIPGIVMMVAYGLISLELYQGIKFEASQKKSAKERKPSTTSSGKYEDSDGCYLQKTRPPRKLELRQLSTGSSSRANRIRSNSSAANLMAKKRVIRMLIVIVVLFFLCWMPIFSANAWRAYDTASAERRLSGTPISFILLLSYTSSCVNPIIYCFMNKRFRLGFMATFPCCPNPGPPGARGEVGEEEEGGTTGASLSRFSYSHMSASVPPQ
Description: Receptor Reference Compound Mean % of control specific
Receptor & Ion-Channel Screening
CEREP ExpresSProfile panel

Chain of BTK (Q06187 whole entry): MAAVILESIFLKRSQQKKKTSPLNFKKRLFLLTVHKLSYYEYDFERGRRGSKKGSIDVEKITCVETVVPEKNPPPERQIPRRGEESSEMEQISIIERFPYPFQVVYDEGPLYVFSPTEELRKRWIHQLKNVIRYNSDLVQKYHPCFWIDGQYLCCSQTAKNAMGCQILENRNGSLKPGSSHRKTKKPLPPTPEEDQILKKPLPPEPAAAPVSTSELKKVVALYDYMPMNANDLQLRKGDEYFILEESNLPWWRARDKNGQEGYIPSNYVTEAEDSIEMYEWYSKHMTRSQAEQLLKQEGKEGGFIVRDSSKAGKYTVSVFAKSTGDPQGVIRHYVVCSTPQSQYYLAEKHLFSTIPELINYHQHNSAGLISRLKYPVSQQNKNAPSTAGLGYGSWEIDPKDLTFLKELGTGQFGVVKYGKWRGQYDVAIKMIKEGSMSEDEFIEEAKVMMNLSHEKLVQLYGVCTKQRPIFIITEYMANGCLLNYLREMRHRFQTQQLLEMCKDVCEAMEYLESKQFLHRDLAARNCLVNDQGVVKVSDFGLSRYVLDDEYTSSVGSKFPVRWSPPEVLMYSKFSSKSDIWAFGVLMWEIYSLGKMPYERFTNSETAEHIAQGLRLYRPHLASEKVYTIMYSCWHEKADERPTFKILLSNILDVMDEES

CC[C@@H](C(=O)OC)[C@@H]1N=C(c2ccc(Cl)cc2)c2ccc(OC)cc2-n2c(C)nnc21 (racemic) [Compound 8]
IC50 (BRDT BD1 WT): 15.8 µM

COC(=O)[C@H](C)[C@@H]1N=C(c2ccc(Cl)cc2)c2ccc(OC)cc2-n2c(C)nnc21 [(2R,3S)-7]
remaining activity at 1 µM (BTK): 96%
remaining activity at 1 µM (CAMK1): 94%
remaining activity at 1 µM (CK1δ): 93%
remaining activity at 1 µM (CK2): 97%
remaining activity at 1 µM (DYRK1A): 80%
remaining activity at 1 µM (EF2K): 97%
remaining activity at 1 µM (GSK3b): 95%
remaining activity at 1 µM (HER4): 114%
remaining activity at 1 µM (HIPK2): 99%
remaining activity at 1 µM (JAK3): 95%
remaining activity at 1 µM (JNK1): 89%
remaining activity at 1 µM (LKB1): 91%
remaining activity at 1 µM (Lck): 86%
remaining activity at 1 µM (MKK1): 89%
remaining activity at 1 µM (MLK3): 100%
remaining activity at 1 µM (NEK6): 109%
remaining activity at 1 µM (PAK4): 104%
remaining activity at 1 µM (PIM1): 106%
remaining activity at 1 µM (PKA): 92%
remaining activity at 1 µM (PKCa): 96%
remaining activity at 1 µM (PLK1): 89%
remaining activity at 1 µM (PRK2): 100%
remaining activity at 1 µM (RIPK2): 103%
remaining activity at 1 µM (ROCK 2): 88%
remaining activity at 1 µM (RSK1): 99%
remaining activity at 1 µM (SGK1): 103%
remaining activity at 1 µM (SYK): 98%
remaining activity at 1 µM (SmMLCK): 112%
remaining activity at 1 µM (TBK1): 98%
remaining activity at 1 µM (VEG-FR): 89%
remaining activity at 1 µM (p38a MAPK): 101%
remaining activity at 1 µM (H2 (h)): 117%
remaining activity at 1 µM (Y2 (h)): 110%
remaining activity at 1 µM (H1 (h)): 108%
Mean % of control specific binding (±SD) (BZD (central)): 105 (10) %
Mean % of control specific binding (±SD) (SKCa channel): 103 (10) %
remaining activity at 1 µM (B2 (h)): 98%
Mean % of control specific binding (±SD) (Cl- channel (GABA-gated)): 98 (4) %
remaining activity at 1 µM (CCK1 (CCKA) (h)): 90%
